From patent US12643881B2, “Bicyclic amine CDK12 inhibitors” (Incyte Corporation, priority 2021, dated 2026)

Target: T1, CDK12 complexed with Cyclin K (Homo sapiens, UniProt Q9NYV4)
T1 construct: GST (N)
Experiment: CDK Enzymatic Assays (HTRF, LANCE Ultra kinase assay), Example A1
Format: biochemical
Details: enzyme pre-incubated with compounds for 60 minutes prior to addition of ATP (1 mM final) and Ulight-peptide; reaction 60-90 minutes at room temperature
Text: Example A1. CDK Enzymatic Assays
The following activity of the CDK enzymes in complex with their respective cyclins we assayed: CDK1 complexed with Cyclin B1; CDK2 complexed with Cyclin E1; CDK4 complexed with Cyclin D1; CDK6 complexed with Cyclin D1; CDK6 complexed with Cyclin D3; CDK9 complexed with Cyclin T1; CDK7 complexed with Cyclin H/MAT1; CDK2 complexed with Cyclin A2; CDK5 complexed with p35; CDK12 complexed with Cyclin K; CDK13 complexed with Cyclin K. These in vitro enzyme activity are assayed using homogeneous time-resolved energy transfer (HTRF), which measures phosphorylation of a peptide substrate. The LANCER Ultra kinase assay (PerkinElmer) uses a ULight™-labeled EIF4E-binding protein 1 (THR37/46) peptide (DYSTTPGGTLFSTTPGTRI (SEQ ID NO: 1)) substrate and a Europium-labeled anti-phospho-4E-BP1 antibody (CDK2, CDK1, CDK4, CDK6, CDK9, CDK12, CDK13) or ULight™-labeled Myelin Basic Protein peptide (VTPRTPPP (SEQ ID NO: 2)) substrate and a Europium-labeled anti-phospho-MBP antibody (CDK7). Each CDK enzyme activity assays utilized human CDK co-expressed as N-terminal GST-tagged protein with its full length cyclin partner using a baculovirus expression system.
Enzyme was pre-incubated with compounds for 30 minutes (CDK1,2,4,6,9) or 60 minutes (CDK7, CDK12, CDK13) prior to addition of ATP and Ulight-peptide (1 mM and 50 nM final, respectively), in assay buffer containing 50 mM HEPES pH 7.5, 1 mM EGTA, 10 mM MgCl2, 2 mM DTT, 0.05 mg/mL BSA, and 0.01% Tween 20. The reaction was then incubated for 60-90 minutes at room temperature. The reactions were stopped by the addition of EDTA and Europium labeled antibody, for a final concentration of 15 mM and 1.0-1.5 nM, respectively. HTRF signals were read after 15-120 minutes. A ratio of fluorescence transferred to the labeled substrate (665 nm) relative to fluorescence of the Europium donor (620 nm) represents the extent of phosphorylation. Ratios for treated wells were normalized to DMSO only (100% activity) and no enzyme (0% activity) controls. Normalized data was analyzed using a three or four parameter dose response curve to determine IC50 for each compound and are shown in Table A. Control reference inhibitors were included on each plate.

T1 sequence (Q9NYV4 whole entry): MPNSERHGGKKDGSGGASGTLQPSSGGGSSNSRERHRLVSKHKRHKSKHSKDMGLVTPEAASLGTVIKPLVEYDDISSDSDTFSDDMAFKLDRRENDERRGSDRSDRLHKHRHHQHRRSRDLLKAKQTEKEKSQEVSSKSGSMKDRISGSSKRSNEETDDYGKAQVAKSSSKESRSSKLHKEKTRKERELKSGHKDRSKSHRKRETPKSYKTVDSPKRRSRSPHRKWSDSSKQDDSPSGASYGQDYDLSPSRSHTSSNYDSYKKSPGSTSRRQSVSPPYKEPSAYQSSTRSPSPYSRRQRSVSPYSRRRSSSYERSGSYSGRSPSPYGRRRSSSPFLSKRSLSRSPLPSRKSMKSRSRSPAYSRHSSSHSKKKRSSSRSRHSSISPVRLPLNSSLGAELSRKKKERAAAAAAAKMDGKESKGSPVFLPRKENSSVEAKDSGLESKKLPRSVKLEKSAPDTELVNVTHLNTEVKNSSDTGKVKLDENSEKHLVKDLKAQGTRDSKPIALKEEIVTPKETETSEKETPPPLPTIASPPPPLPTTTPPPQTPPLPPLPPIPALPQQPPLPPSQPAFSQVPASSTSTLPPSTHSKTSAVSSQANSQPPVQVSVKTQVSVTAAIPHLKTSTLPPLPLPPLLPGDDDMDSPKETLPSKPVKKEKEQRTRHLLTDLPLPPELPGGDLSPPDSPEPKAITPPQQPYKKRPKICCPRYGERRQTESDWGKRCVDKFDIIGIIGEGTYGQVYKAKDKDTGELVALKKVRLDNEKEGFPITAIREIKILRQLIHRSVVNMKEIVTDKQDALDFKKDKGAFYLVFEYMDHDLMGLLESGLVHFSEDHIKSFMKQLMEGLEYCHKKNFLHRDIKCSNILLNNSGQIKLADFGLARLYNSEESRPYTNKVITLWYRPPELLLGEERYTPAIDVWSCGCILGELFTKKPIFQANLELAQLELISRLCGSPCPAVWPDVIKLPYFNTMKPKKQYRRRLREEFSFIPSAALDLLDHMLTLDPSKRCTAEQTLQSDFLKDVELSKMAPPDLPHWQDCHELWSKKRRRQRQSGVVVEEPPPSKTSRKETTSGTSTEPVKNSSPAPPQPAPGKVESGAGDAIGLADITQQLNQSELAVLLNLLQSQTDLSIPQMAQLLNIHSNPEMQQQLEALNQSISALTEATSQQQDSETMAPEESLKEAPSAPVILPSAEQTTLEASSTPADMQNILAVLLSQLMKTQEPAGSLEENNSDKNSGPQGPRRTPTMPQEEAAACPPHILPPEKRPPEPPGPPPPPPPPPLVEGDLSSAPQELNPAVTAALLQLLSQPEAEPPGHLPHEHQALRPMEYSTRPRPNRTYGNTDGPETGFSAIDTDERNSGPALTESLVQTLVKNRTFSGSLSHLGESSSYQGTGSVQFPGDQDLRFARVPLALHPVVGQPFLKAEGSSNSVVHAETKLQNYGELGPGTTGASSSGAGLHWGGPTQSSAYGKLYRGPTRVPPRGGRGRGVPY
T1 sequence (O75909 whole entry partner): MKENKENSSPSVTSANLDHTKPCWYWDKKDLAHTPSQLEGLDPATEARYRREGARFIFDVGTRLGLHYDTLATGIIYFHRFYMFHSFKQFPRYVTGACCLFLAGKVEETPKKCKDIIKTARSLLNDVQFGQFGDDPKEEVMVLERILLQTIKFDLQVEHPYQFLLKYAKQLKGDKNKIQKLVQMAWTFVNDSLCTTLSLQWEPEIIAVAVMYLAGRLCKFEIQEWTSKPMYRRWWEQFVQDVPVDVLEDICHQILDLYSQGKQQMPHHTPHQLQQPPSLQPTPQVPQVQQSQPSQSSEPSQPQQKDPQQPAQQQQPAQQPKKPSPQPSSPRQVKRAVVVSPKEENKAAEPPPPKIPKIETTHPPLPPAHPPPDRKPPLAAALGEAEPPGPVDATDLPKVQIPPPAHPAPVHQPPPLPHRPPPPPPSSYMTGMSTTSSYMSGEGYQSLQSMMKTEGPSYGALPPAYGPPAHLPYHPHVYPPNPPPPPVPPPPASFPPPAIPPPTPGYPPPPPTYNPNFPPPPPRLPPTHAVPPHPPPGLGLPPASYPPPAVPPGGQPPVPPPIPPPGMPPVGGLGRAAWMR

IC50 [nM] | SMILES
< 50 | C=CC(=O)Nc1nc2c(N3CC[C@@H](Nc4ncc(C#N)c(OC)n4)C3)nccn2n1 [Example 3, (R)—N-(8-(3-((5-Cyano-4-methoxypyrimidin-2-yl)amino)pyrrolidin-1-yl)-[1,2,4]triazolo[1,5-a]pyrazin-2-yl)acrylamide]
< 50 | C#Cc1cnc(N[C@@H]2CCC[C@H](N3Cc4ccc(NC(=O)C=C)cc4C3=O)C2)nc1 [Example 17, N-(2-((1S,3R)-3-((5-Ethynylpyrimidin-2-yl)amino)cyclohexyl)-3-oxoisoindolin-5-yl)acrylamide]
< 50 | C=CC(=O)Nc1cnc2c(N3CCC[C@@H](Nc4ncc(C#N)c(OC)n4)C3)nccn12 [Example 34, (R)—N-(8-(3-((5-Cyano-4-methoxypyrimidin-2-yl)amino)piperidin-1-yl)imidazo[1,2-a]pyrazin-3-yl)acrylamide]
< 50 | C=CC(=O)Nc1ccc2c(c1)C(=O)N([C@H]1CCC[C@@H](Nc3ncc(Br)cn3)C1)C2 [Example 68, N-(2-((1S,3R)-3-((5-Bromopyrimidin-2-yl)amino)cyclohexyl)-3-oxoisoindolin-5-yl)acrylamide]
< 50 | C=CC(=O)Nc1cc2nc(N3C[C@H](F)C[C@@H](Nc4ncc(C(F)(F)F)cn4)C3)n(C)c2cc1C(C)C [Example 101, N-(2-((3R,5R)-3-Fluoro-5-((5-(trifluoromethyl)pyrimidin-2-yl)amino)piperidin-1-yl)-6-isopropyl-1-methyl-1H-benzo[d]imidazol-5-yl)acrylamide]
< 50 | C=CC(=O)Nc1cc2nc(N3CC[C@H](F)[C@@H](Nc4ncc(C(F)(F)F)cn4)C3)n(C)c2cc1C [Example 99, N-(2-((3S,4S)-4-Fluoro-3-((5-(trifluoromethyl)pyrimidin-2-yl)amino)piperidin-1-yl)-1,6-dimethyl-1H-benzo[d]imidazol-5-yl)acrylamide]
< 50 | C=CC(=O)Nc1ccc2sc(N3CC[C@@H](Nc4ncc(C#N)c(OC)n4)C3)nc2c1 [Example 41, (R)—N-(2-(3-((5-Cyano-4-methoxypyrimidin-2-yl)amino)pyrrolidin-1-yl)benzo[d]thiazol-5-yl)acrylamide]
< 50 | C=CC(=O)Nc1ccc2c(c1)nc(N1C[C@H](F)C[C@@H](Nc3ncc(C(F)(F)F)cn3)C1)n2C [Example 93, N-(2-((3R,5R)-3-Fluoro-5-((5-(trifluoromethyl)pyrimidin-2-yl)amino)piperidin-1-yl)-1-methyl-1H-benzo[d]imidazol-5-yl)acrylamide]
< 50 | C=CC(=O)Nc1nc2cccc(N3CC[C@@H](Nc4ncc(C#N)c(OC)n4)C3)n2n1 [Example 23, (R)—N-(5-(3-((5-Cyano-4-methoxypyrimidin-2-yl)amino)pyrrolidin-1-yl)-[1,2,4]triazolo[1,5-a]pyridin-2-yl)acrylamide]
< 50 | C=CC(=O)Nc1ccc2c(c1)C(=O)N([C@H]1CCC[C@@H](Nc3ncc(C=C)cn3)C1)C2 [Example 7, N-(3-Oxo-2-((1S,3R)-3-((5-vinylpyrimidin-2-yl)amino)cyclohexyl)isoindolin-5-yl)acrylamide]
50 to 500 | C=CC(=O)Nc1ccc2c(c1)C(=O)N([C@H]1CCC[C@@H](Nc3cc(C)c(C#N)cn3)C1)C2 [Example 16, N-(2-((1S,3R)-3-((5-Cyano-4-methylpyridin-2-yl)amino)cyclohexyl)-3-oxoisoindolin-5-yl)acrylamide]
< 50 | C=CC(=O)Nc1ccc2c(c1)C(=O)N([C@H]1CCC[C@@H](Nc3ncc(Cl)c(OC)n3)C1)C2 [Example 81, N-(2-((1S,3R)-3-((5-Chloro-4-methoxypyrimidin-2-yl)amino)cyclohexyl)-3-oxoisoindolin-5-yl)acrylamide]
< 50 | C=CC(=O)Nc1ccc2c(c1)C(=O)N([C@H]1CCC[C@@H](Nc3ncc(C(F)(F)F)cn3)C1)C2 [Example 85, N-(3-Oxo-2-((1S,3R)-3-((5-(trifluoromethyl)pyrimidin-2-yl)amino)cyclohexyl)isoindolin-5-yl)acrylamide]
< 50 | COc1nc(N[C@@H]2CCCN(c3cc4c(cn3)c(NC(=O)CCl)nn4C)C2)ncc1C#N [Example 33, (R)-2-Chloro-N-(6-(3-((5-cyano-4-methoxypyrimidin-2-yl)amino)piperidin-1-yl)-1-methyl-1H-pyrazolo[4,3-c]pyridin-3-yl)acetamide]
< 50 | C=CC(=O)N(C)c1ccc2c(c1)C(=O)N([C@H]1CCC[C@@H](Nc3ncc(C#N)c(OC)n3)C1)C2 [Example 65, N-(2-((1S,3R)-3-((5-Cyano-4-methoxypyrimidin-2-yl)amino)cyclohexyl)-3-oxoisoindolin-5-yl)-N-methylacrylamide]
< 50 | C=CC(=O)Nc1ccc2c(c1)nc(N1C[C@H](O)C[C@@H](Nc3ncc(C(F)(F)F)cn3)C1)n2C [Example 88, N-(2-((3R,5R)-3-Hydroxy-5-((5-(trifluoromethyl)pyrimidin-2-yl)amino)piperidin-1-yl)-1-methyl-1H-benzo[d]imidazol-5-yl)acrylamide]
< 50 | C=CC(=O)Nc1ccc2c(c1)C(=O)N([C@H]1CCC[C@@H](Nc3ncc(Br)c(C(F)(F)F)n3)C1)C2 [Example 75, N-(2-((1S,3R)-3-((5-Bromo-4-(trifluoromethyl)pyrimidin-2-yl)amino)cyclohexyl)-3-oxoisoindolin-5-yl)acrylamide]
50 to 500 | COc1nc(N[C@@H]2CCC[C@H](N3Cc4ccc(NC(=O)/C=C/CF)cc4C3=O)C2)ncc1C#N [Example 57, (E)-N-(2-((1S,3R)-3-((5-Cyano-4-methoxypyrimidin-2-yl)amino)cyclohexyl)-3-oxoisoindolin-5-yl)-4-fluorobut-2-enamide]
50 to 500 | C=CC(=O)Nc1ccc2c(c1)C(=O)N([C@H]1CCC[C@@H](Nc3ncc(C4CC4)cn3)C1)C2 [Example 11, N-(2-((1S,3R)-3-((5-Cyclopropylpyrimidin-2-yl)amino)cyclohexyl)-3-oxoisoindolin-5-yl)acrylamide]
< 50 | C=CC(=O)Nc1ccc2c(c1)ncn2[C@H]1CCC[C@@H](Nc2ncc(C#N)c(OC)n2)C1 [Example 79, N-(1-((1S,3R)-3-((5-Cyano-4-methoxypyrimidin-2-yl)amino)cyclohexyl)-1H-benzo[d]imidazol-5-yl)acrylamide]
< 50 | C=CC(=O)Nc1ccc2c(c1)nc([C@H]1CCC[C@@H](Nc3ncc(C#N)c(OC)n3)C1)n2C [Example 73, N-(2-((1S,3R)-3-((5-Cyano-4-methoxypyrimidin-2-yl)amino)cyclohexyl)-1-methyl-1H-benzo[d]imidazol-5-yl)acrylamide]
< 50 | C=CC(=O)Nc1ccc2c(c1)nc(N1CCC(F)(F)[C@@H](Nc3ncc(C(F)(F)F)cn3)C1)n2C [Example 92, (S)—N-(2-(4,4-Difluoro-3-((5-(trifluoromethyl)pyrimidin-2-yl)amino)piperidin-1-yl)-1-methyl-1H-benzo[d]imidazol-5-yl)acrylamide]
< 50 | C=CC(=O)Nc1ccc2c(c1)nc(N1CC[C@H](F)[C@@H](Nc3ncc(C(F)(F)F)cn3)C1)n2C [Example 91, N-(2-((3S,4S)-4-Fluoro-3-((5-(trifluoromethyl)pyrimidin-2-yl)amino)piperidin-1-yl)-1-methyl-1H-benzo[d]imidazol-5-yl)acrylamide]
50 to 500 | CC#CC(=O)Nc1ccc2c(c1)C(=O)N([C@H]1CCC[C@@H](Nc3ncc(C#N)c(OC)n3)C1)C2 [Example 60, N-(2-((1S,3R)-3-((5-Cyano-4-methoxypyrimidin-2-yl)amino)cyclohexyl)-3-oxoisoindolin-5-yl)but-2-ynamide]
